Reference: patent EP1878738A1, “ALLERGY-SUPPRESSIVE COMPOSITION, ALLERGY-SUPPRESSIVE FOOD AND ALLERGY-SUPPRESSIVE AGENT” (priority 2005, dated 2006)
Like-named read-outs stand apart in the source and are kept apart here.

Assays:
IgA = assay: Example 1: IgA in feces by ELISA before and after taking 1-kestose; assay type: in vivo, human
Excerpt: (§1) The composition, containing 1-kestose used in this Example 1, is of a 1-kestose purity of 98%, composed of 1-kestose (98 weight %), nystose (1.0 weight %) and sucrose (1.0 weight %). An allergy-suppressive composition, having 1-kestose as an active ingredient, was given to 4 adult males having allergic symptoms, with each dose of 3g for one month. The feces before and after the composition was taken were collected to measure IgA and intestinal bacteria in the feces.
To measure IgA, the collected feces were diluted 20 times with phosphate buffered saline (PBS) and supernatant was collected by a centrifugal separator. Then, the liquid was diluted 10 times with water to make a sample for measurement. Also, an anti-human IgA mouse monoclonal antibody (product of Nacalai Tesque Inc.), and a horseradish peroxidase (HRP)-labeled antibody by labeling the antihuman IgA mouse monoclonal antibody with HRP were prepared. Afterward, IgA was measured using ELISA method.

Bifidobacterium [1] = assay: Example 1: intestinal bacteria in feces, anaerobic plate culture (Bifidobacterium); assay type: in vivo, human; details: after 3g for one month
Excerpt: as §1
Meanwhile, to measure intestinal bacteria, a sample liquid for measurement was dripped on a flat-plate agar medium by 0.05ml and applied thereon. After anaerobic culture of the sample at 35°C for 3 to 5 days, the bacteria were identified and bacterial count was found.

anti-OVA IgG1 = assay: Example 2: oral immune tolerance, serum anti-OVA IgG1 by ELISA in human-flora associated mice; assay type: in vivo; details: 1-kestose-administered group, 41 without 1-kestose, germfree mice 1583
Experimental: (§2) In Example 2, to examine the effect of 1-kestose on the production of IgG1 and IgE, 1-kestose was administered to germfree […] to measure IgG1 and IgE amounts in the serum before and after giving 1-kestose.
(§3) In this Example 2, the mice used in the experiment were male […] with 4 weeks of age born and grown in a germfree condition (BALB/c), with 10 to 15 rats as a group. These mice were orally provided with 0.5ml of a liquid obtained by diluting feces of human infants 100 times and observed in a germfree condition for two weeks. Afterward, 5mg of ovalbumin (OVA) was orally administered to the mice for 4 days. To examine the existence of immune tolerance, a liquid obtained by adding 0.1 mg of aluminum hydroxide gel to 1 µg of OVA was injected into the abdominal cavity, 1, 3, 5 and 7 weeks after orally administering OVA. These human-flora associated mice were separated into 1-kestose-administered group and non-administered control group and anti-OVA IgG1 and anti-OVA IgE in the serum were measured by ELISA method, 9 weeks after administering 1-kestose.

anti-OVA IgE = assay: Example 2: oral immune tolerance, serum anti-OVA IgE by ELISA in human-flora associated mice; assay type: in vivo; details: 1-kestose-administered group, 204 without 1-kestose, germfree mice 496
Experimental: as §2, §3

nonspecific IgE [2] = assay: Example 3: nonspecific IgE in human serum before and after taking 1-kestose; assay type: in vivo; details: adult with allergic symptoms, 3g for one month, standard value 366
Excerpt: In this Example 3, to examine the effect of 1-kestose on IgE amount in the human serum, the subjects were given 1-kestose to measure nonspecific IgE amount in the serum before and after taking 1-kestose.

[3] = in vivo
Excerpt: The subjects were 2 volunteer patients with allergic symptoms (adult male and female each). They took 3g of 1-kestose for one month and blood components like nonspecific IgE in the serum were examined.

Bifidobacterium [4] = assay: Example 4: improvement of enterobacterial flora in germfree mice, proportion of Bifidobacterium; assay type: in vivo; details: orally administered for 5 days
Excerpt: In this Example 4, the effect of improving the enterobacterial flora of each composition composed of fructooligosaccharide was compared, using germfree mice. The fructooligosaccharide is composed of kestose (trisaccharide), nystose (tetrasaccharide) and F-nystose (pentasaccharide). The kestose used in this Example 4 is composed of 1-kestose (99.0%), nystose (0.5%) and sucrose (0.5%). The nystose is composed of nystose (99.0%), 1-kestose (0.9%) and sucrose (0.1 %). The F-nystose is composed of F-nystose (82.0%), other pentasaccharides (13.0%) and other components (5.0%). Additionally, control groups of mice dosed with sterile water and dosed with usual fructooligosaccharide (1-kestose: 35.8 weight %, nystose: 50.9 weight %, F-nystose: 8.5 weight %) were prepared and their data were obtained for comparison. […] Each oligosaccharide was orally administered to germfree mice for 5 days to determine the proportion of Bifidobacterium proliferated to total bacterial count.

nonspecific IgE [5] = assay: Example 5: nonspecific IgE after 1-kestose and after fructooligosaccharide intake; assay type: in vivo, human
Experimental: In this Example 5, the subjects were 4 adult females (from 27 to 45 years old) with daily allergic symptoms. They took 1-kestose and fructooligosaccharide and nonspecific IgE of each subject was measured. In this experiment, nonspecific IgE before taking the substances was measured and then the subjects took 3g of 1-kestose after eating once a day for 4 weeks. The blood was collected 5 weeks later to measure nonspecific IgE and afterward they took no substances for 2 weeks. Then, the subjects took 3g of fructooligosaccharide after eating once a day for 4 weeks and the blood was collected. The 1-kestose used in this Example 5 has a purity of 95% or more, and the commercially-available fructooligosaccharide is a nystose-dominant oligosaccharide composed of nystose (51 %) and 1-kestose (36%). In the experiment, the subjects took less health foods like prebiotics and probiotics containing other oligosaccharides and Lactobacillus.

Bifidobacterium [6] = assay: Example 6: effective amount of 1-kestose, Bifidobacterium count in feces; assay type: in vivo, human; details: for minimal effective dose: Bifidobacterium, po, read-out: effective amount of 1-kestose per 1kg body weight
Excerpt: (§4) According to the results of each above-mentioned Example, it was confirmed that an adult can have the effect of 1-kestose as prebiotics with a daily dose of 3g. […] The subjects were 4 health adult males whose age ranges from 38 to 56. The subject A is 67kg, subject B is 56kg, subject C is 59kg and subject D is 63kg in weight.
In the experiment, feces were first collected from each subject before taking 1-kestose, and counts of Bifidobacterium, Lactobacillus, Clostridium and total bacteria were measured. Then, they took 1g of 1-kestose once a day for 2 weeks. 15 days later, feces were collected from each subject to measure intestinal bacteria. Afterward, they took no 1-kestose for one week. From the 22nd day, they took 3g of 1-kestose once a day for two weeks, and feces were collected from each subject on the 36th day to measure intestinal bacteria. Figure 13 and Figure 14 show the results.

[7] = Example 6: 1-kestose intake with no side effect (diarrhea, organs, blood); set-up: species or system human; details: in vivo
Excerpt: Meanwhile, the 1-kestose intake with no side effect was examined.

[8] = Volunteer experiment on bowel movement, daily dose 2g; assay type: in vivo, human; details: daily dose of 2g; volunteer subjects
Excerpt: as §4

[9] = system: infants with atopic dermatitis; assay: Example 7: clinical test in infants with atopic dermatitis, eruption severity; assay type: in vivo, human
Excerpt: (§5) The test subjects were 13 infants with atopic dermatitis and mild and severe eruption (age: 0 to 3 years old) in which food allergic symptoms were accompanied. The test was approved by parents of the subjects.
(§6) In the clinical test, the subjects were kept under observation for 2 weeks and they took 1-kestose with a purity of 98% mixed with water or juice once a day for 12 weeks. The subjects at age 1 or under were provided with 1g of 1-kestose a day and those at age 2 to 3 took 2g of 1-kestose a day. The test subjects used no external preparation of steroid for one month or more before taking 1-kestose. During the test, the subjects were treated mainly with a humectant and took food allergen removing food.
(§7) The subjects were diagnosed at the start of, 6 and 12 weeks after taking 1-kestose, and 4 to 8 weeks after the intake completion to assess the clinical test results (examination of dermis severity and stool samples). The inspection 4 to 8 weeks after the intake completion was aimed at examining drug efficacy sustaining effect. In the stool sample inspection, feces were collected form the subjects to calculate bifidobacterial occupancy in the feces. The eruption severity was examined using Severity Determination Method by Region of Severity Discussion Committee of Japanese Dermatological Association, in which by separating the entire body into 5 regions: head, anterior and posterior parts of the trunk, upper and lower extremities, the sum of comprehensive assessments is calculated in each region (on 0 to 4 scales).

Bifidobacterium [10] = assay: Example 7: clinical test, bifidobacterial occupancy in feces; assay type: in vivo, human; details: before 30.1 %
Excerpt: as §5, §6, §7

[11] = assay type: in vivo, human; details: many subjects; 1g or 2g a day for 12 weeks
Excerpt: as §6, with “The test subjects were 13 infants with atopic dermatitis and mild and severe eruption (age: 0 to 3 years old) in which food allergic symptoms were accompanied. The test was approved by parents of the subjects. In” for “In”

OC[C@H]1O[C@@](CO)(OC[C@@]2(O[C@H]3O[C@H](CO)[C@@H](O)[C@H](O)[C@H]3O)O[C@H](CO)[C@@H](O)[C@@H]2O)[C@@H](O)[C@@H]1O [1-kestose]
increase of mean IgA concentration in feces (IgA; after vs before taking 3g for one month): ≥ 1.7 times | mean IgA concentration in feces (IgA; mean of 4 adult males with allergic symptoms, 3g for one month, 0.61 before taking): 1.06 µg/mL | increase of IgA concentration in feces (IgA; subjects A to C, 3g for one month): twice or more | mean bifidobacterial occupancy relative to the total bacterial count (Bifidobacterium [1]; mean, before 19.97%): 43.05% | bifidobacterial occupancy relative to the total bacterial count (Bifidobacterium [1]; subject A, before 11.67%): 52.38% | bifidobacterial occupancy relative to the total bacterial count (Bifidobacterium [1]; subject B, before 38.57%): 57.14% | anti-OVA IgG1 in the serum (anti-OVA IgG1): 31 unit/ml | anti-OVA IgE in the serum (anti-OVA IgE): 156 unit/ml | nonspecific IgE in the serum (nonspecific IgE [2]; before 381): 313 IU/ml | nonspecific IgE in the serum (nonspecific IgE [2]; before 505): 354 IU/ml | C-reactive protein (CRP) value [3]: negative | effect on hepatic functions, other organs and blood components [3]: no effect on hepatic functions, etc., other organs and blood components | proportion of Bifidobacterium proliferated to total bacterial count (Bifidobacterium [4]): 12.59% | mean nonspecific IgE (nonspecific IgE [5]; mean of 4 adult females, 3g once a day for 4 weeks, before 403.8): 298.8 IU/ml | decrease in mean nonspecific IgE (nonspecific IgE [5]; mean of 4 subjects, vs before taking): approximately 26% | nonspecific IgE (nonspecific IgE [5]; subject A, 3g once a day for 4 weeks, before 541): 298 IU/ml | decrease in nonspecific IgE (nonspecific IgE [5]; subject A, vs before taking): approximately 45% | nonspecific IgE (nonspecific IgE [5]; subject B, 3g once a day for 4 weeks, before 422): 282 IU/ml | decrease in nonspecific IgE (nonspecific IgE [5]; subject B, vs before taking): ≥ 32% | nonspecific IgE (nonspecific IgE [5]; subject C as printed, 3g once a day for 4 weeks, before 323): 275 IU/ml | decrease in nonspecific IgE (nonspecific IgE [5]; subject C as printed, vs before taking): approximately 25% | increase in nonspecific IgE (nonspecific IgE [5]; subject C, vs before taking): about 3% | minimal effective dose (Bifidobacterium [6]; mean value): 16 mg/kg | minimal effective dose (Bifidobacterium [6]; subject A (67kg)): 15 mg/kg | minimal effective dose (Bifidobacterium [6]; subject B (56kg)): 18 mg/kg | minimal effective dose (Bifidobacterium [6]; subject C (59kg)): 17 mg/kg | minimal effective dose (Bifidobacterium [6]; subject D (63kg)): 16 mg/kg | effective 1-kestose amount (Bifidobacterium [6]; adult with a weight of at least 60kg): 1 g per day | 1-kestose intake with no side effect ([7]; human, po): ≤ 400 mg/kg/day | diarrhea [7]: no diarrhea | diarrhea symptoms [7]: no diarrhea symptoms | effect on organs and blood component [7]: no effect on organs and blood component | effect on bowel movement [8]: improving bowel movement | eruption (dermis severity, Japanese Dermatological Association method by region) ([9]; 13 infants 0 to 3 years, 1g or 2g a day for 12 weeks, p 0.0022 start vs 12 weeks, p 0.0025 start vs 4 to 8 weeks after completion): significant improvement in eruption | number of subjects with no deterioration or recurrence of eruption ([9]; of 11 subjects, 4 to 8 weeks after taking 1-kestose for 12 weeks): Seven | number of subjects who completely removed eruption ([9]; of 13 subjects, 4 to 8 weeks after taking 1-kestose for 12 weeks): 6 | mean bifidobacterial occupancy in feces (Bifidobacterium [10]; 4 to 8 weeks after completion of 12 weeks intake): 32.7% | mean bifidobacterial occupancy in feces (Bifidobacterium [10]; 9 subjects, 6 weeks after taking): 42.3% | mean bifidobacterial occupancy in feces (Bifidobacterium [10]; 9 subjects, 12 weeks after taking, p 0.0308 vs start): 56.0% | bowel movement [11]: improved bowel movement

OC[C@H]1O[C@@](CO)(OC[C@@]2(OC[C@@]3(OC[C@@]4(O[C@H]5O[C@H](CO)[C@@H](O)[C@H](O)[C@H]5O)O[C@H](CO)[C@@H](O)[C@@H]4O)O[C@H](CO)[C@@H](O)[C@@H]3O)O[C@H](CO)[C@@H](O)[C@@H]2O)[C@@H](O)[C@@H]1O [F-nystose]
proportion of Bifidobacterium proliferated to total bacterial count (Bifidobacterium [4]): 7.94%

OC[C@H]1O[C@@](CO)(OC[C@@]2(OC[C@@]3(O[C@H]4O[C@H](CO)[C@@H](O)[C@H](O)[C@H]4O)O[C@H](CO)[C@@H](O)[C@@H]3O)O[C@H](CO)[C@@H](O)[C@@H]2O)[C@@H](O)[C@@H]1O [nystose]
proportion of Bifidobacterium proliferated to total bacterial count (Bifidobacterium [4]): 7.94%
